Experimental data reported in ChEMBL document CHEMBL1128874 (Bioorg Med Chem Lett, 1995).
pIC50: −log10 of the molar value.

Assay: Antagonism of calmodulin dependent cAMP Phosphodiesterase
Format: functional

pIC50 | Structure (SMILES)
5.82 | CC/C(=C(\c1ccc(I)cc1)c1ccc(OCCN2CCCC2)cc1)c1ccccc1 [IDOXIFENE]
5.66 | CC/C(=C(/c1ccc(I)cc1)c1ccc(OCCN2CCCC2)cc1)c1ccc(O)cc1
5.74 | CC/C(=C(\c1ccc(I)cc1)c1ccc(OCCN2CCCC2)cc1)c1ccc(O)cc1
5.30 | CC/C(=C(\c1ccc(I)cc1)c1ccc(OCCN2CCCC2)cc1)c1ccc(I)cc1
5.59 | CC/C(=C(\c1ccc(I)cc1)c1ccc(OCCN2CCCC2)cc1)c1ccc(N)cc1
